Experimental findings from US20090215921A1, “MODIFIED DIMETHYLACRYLATE MONOMER, METHOD FOR PREPARING THE SAME, AND POLYMERIC DENTAL COMPOSITE” (priority 2008, published 2009) are described below.

A short description of data set [1]: Viscosity measured using a Brookfield viscosmeter. Particulars: monomer. The data set is classed as physicochemical. How it is done:
1. Viscosity is measured using a Brookfield viscosmeter.
(§1) The modified Bis-GMA obtained in Example 2 and Bis-GMA were subjected to viscosity and water absorption tests.

Data set [2] can be described thus: Water absorption for a modified Bis-GMA monomer, Karl Fischer titration. The data set is classed as physicochemical. Here is the method:
2. Water absorption for a modified Bis-GMA monomer is measured according to Karl Fischer titration.
as §1

In data set [1], `C=C(C)C(=O)OCC(COc1ccc(C(C)(C)c2ccc(OCC(COC(=O)C(=C)C)O[Si](CC)(CC)CC)cc2)cc1)O[Si](CC)(CC)CC` (stereo not shown) [Example 2] returned a Viscosity of 440 cp. The compound also came in with a Water absorption in data set [2] of 7.4 mg/mm^3/week.
For the compound `C=C(C)C(=O)OCC(O)COc1ccc(C(C)(C)c2ccc(OCC(O)COC(=O)C(=C)C)cc2)cc1` (stereo not shown) [Bis-GMA, 2,2-bis[4-(2-hydroxyl-3-methacryloyloxy)phenyl] propane], in data set [1], the Viscosity is reported as 458400 cp. Moreover, the Water absorption in data set [2] came to 35 mg/mm^3/week.
